Measurements taken from PubChem BioAssay (NCI).
Values joined by “and” are separate entries in the source; they are usually repeats but may differ in a detail not shown here. Equal values may be shown once.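 Tested at 5 concentrations; 48 h exposure; 96-well plates; endpoints linearly interpolated, else capped at highest concentration. Abbreviation: GI50, concentration required for 50% inhibition of growth. TGI: total growth inhibition.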 Active and inactive are the calls of the source. Cut-off read from the data, not from the text of the source: active = GI50 below about 0.43 µM; inactive = the rest.

Experiments:
Test in all cases: inhibition of tumour cell growth, NCI panel, 48 h
OVCAR-8 ovarian = test system: OVCAR-8 ovarian
XF 498 CNS = test system: XF 498 CNS
HOP-92 NSCLC = test system: HOP-92 NSCLC
SK-OV-3 ovarian = test system: SK-OV-3 ovarian
ACHN renal = test system: ACHN renal
MALME-3M melanoma = test system: MALME-3M melanoma
TK-10 renal = test system: TK-10 renal
U251 CNS = test system: U251 CNS
SF-539 CNS = test system: SF-539 CNS

With `CCNC(=O)CCN(C(=O)O)S(=O)(=O)c1ccc(NC(=O)c2ccccc2)cc1` the TGI (OVCAR-8 ovarian) was > 100 µM, the TGI (XF 498 CNS) was > 100 µM and the TGI (HOP-92 NSCLC) was > 100 µM. The TGI (SK-OV-3 ovarian) was > 100 µM, the TGI (ACHN renal) was > 100 µM and the TGI (MALME-3M melanoma) was > 100 µM. For the same molecule, the TGI (TK-10 renal) was > 100 µM, the TGI (U251 CNS) was > 100 µM and the TGI (SF-539 CNS) was > 100 µM.
`O=[N+]([O-])c1cccc(C2N3CCCCC3[C@@H]3c4[nH]c5ccccc5c4CCN23)c1` (some centres undefined) was tested, and the TGI (OVCAR-8 ovarian) was > 100 µM, the TGI (XF 498 CNS) was 27 µM and the TGI (HOP-92 NSCLC) was 36.2 µM. The TGI (SK-OV-3 ovarian) was 52.1 µM, the TGI (ACHN renal) was 38.7 µM and the TGI (MALME-3M melanoma) was 18.9 µM. It also gave a TGI (TK-10 renal) of 35.4 µM, a TGI (U251 CNS) of 28.4 µM and a TGI (SF-539 CNS) of 29.7 µM.
`CCCCc1c2c(nc3c1CCC/C3=C\c1ccccc1)C(=O)CCC2` was tested, and the TGI (OVCAR-8 ovarian) was > 100 µM, the TGI (XF 498 CNS) was 33.2 µM and the TGI (HOP-92 NSCLC) was 58.7 µM. For the same molecule, the TGI (SK-OV-3 ovarian) was 67.2 µM, the TGI (ACHN renal) was 95.2 µM and the TGI (MALME-3M melanoma) was 52 µM. The TGI (TK-10 renal) was 72.4 µM, the TGI (U251 CNS) was 34 µM and the TGI (SF-539 CNS) was 33.2 µM.
For `Cc1[nH]c2ccccc2c1C1Cc2ccccc2N1C(=O)/C=C\C(=O)O` (centres undefined), the TGI (XF 498 CNS) was 47.8 µM, the TGI (HOP-92 NSCLC) was 76.6 µM and the TGI (SK-OV-3 ovarian) was > 100 µM. For the same molecule, the TGI (ACHN renal) was > 100 µM, the TGI (MALME-3M melanoma) was > 100 µM and the TGI (TK-10 renal) was > 100 µM. For the same molecule, the TGI (U251 CNS) was 70.7 µM and the TGI (SF-539 CNS) was 75.2 µM.
`CCCCCCCCC[C@@H]1CC(=O)OCC2OC(O[C@H](CCCCCCCCC)CC(=O)OCC3OC(O[C@H](CCCCCCCCC)CC(=O)OCC4OC(O1)C(O)C(O)C4O)C(O)C(O)C3O)C(O)C(O)C2O` (some centres undefined) was tested, and the TGI (OVCAR-8 ovarian) was 28.7 µM, the TGI (XF 498 CNS) was 23.3 µM and the TGI (HOP-92 NSCLC) was 22.6 µM. For the same molecule, the TGI (SK-OV-3 ovarian) was 26.5 µM, the TGI (ACHN renal) was 26.1 µM and the TGI (MALME-3M melanoma) was 22.3 µM. It also gave a TGI (TK-10 renal) of 23.1 µM, a TGI (U251 CNS) of 21.4 µM and a TGI (SF-539 CNS) of 23.2 µM.
`CCOC(=O)Nc1nc2ccc(Cn3cccc3)cc2[nH]1` was tested, and the TGI (OVCAR-8 ovarian) was > 100 µM, the TGI (XF 498 CNS) was > 85 µM and the TGI (HOP-92 NSCLC) was > 100 µM. For the same molecule, the TGI (SK-OV-3 ovarian) was > 100 µM, the TGI (ACHN renal) was > 100 µM and the TGI (MALME-3M melanoma) was > 100 µM. For the same molecule, the TGI (TK-10 renal) was > 100 µM, the TGI (U251 CNS) was > 64.8 µM and the TGI (SF-539 CNS) was 7.09 µM.
In the case of `CC1=C(C(=O)Nc2ccccc2C)C(c2ccc(Cl)c(Cl)c2)C(C(=O)Nc2ccccc2C)=C(C)N1`, the TGI (OVCAR-8 ovarian) was > 100 µM, the TGI (XF 498 CNS) was 56.4 µM and the TGI (HOP-92 NSCLC) was 33.4 µM. The TGI (SK-OV-3 ovarian) was 81.4 µM, the TGI (ACHN renal) was > 100 µM and the TGI (MALME-3M melanoma) was 52.3 µM. For the same molecule, the TGI (TK-10 renal) was > 100 µM, the TGI (U251 CNS) was 40.5 µM and the TGI (SF-539 CNS) was 49.6 µM.
For `CCN(CC)CCCC(C)Nc1c2ccc(Cl)cc2nc2ccc(OC)cc12` (centres undefined), the GI50 (OVCAR-8 ovarian) was 1.23 µM, the TGI (OVCAR-8 ovarian) was 5.64 µM and 5.73 µM and the TGI (XF 498 CNS) was 3.12 µM. The GI50 (HOP-92 NSCLC) was 0.811 µM, the TGI (HOP-92 NSCLC) was 3.17 µM and 2.53 µM and the GI50 (SK-OV-3 ovarian) was 2.69 µM. For the same molecule, the TGI (SK-OV-3 ovarian) was 10.3 µM and 12.6 µM, the GI50 (ACHN renal) was 1420 nM and the TGI (ACHN renal) was 5.15 µM and 9.77 µM. For the same molecule, the TGI (MALME-3M melanoma) was 3.79 µM and 3.3 µM, the TGI (TK-10 renal) was 11.8 µM and 13 µM and the GI50 (U251 CNS) was 1.89 µM. The TGI (U251 CNS) was 4.1 µM and 3.39 µM, the GI50 (SF-539 CNS) was 1.86 µM and the TGI (SF-539 CNS) was 3.39 µM and 3.3 µM.
With `Cc1c[nH]c2c(O)cc3c(c12)[C@H](CCl)CN3C(=O)c1cc2cc(NC(=O)Nc3ccc4[nH]c(C(=O)N5C[C@@H](CCl)c6c5cc(O)c5[nH]cc(C)c65)cc4c3)ccc2[nH]1` the TGI (OVCAR-8 ovarian) was 16.3 µM and 2e-06 µg/mL and 0.000888 µg/mL, the outcome (XF 498 CNS) was “inactive” and the TGI (HOP-92 NSCLC) was > 100 µM and 0.00813 µg/mL. For the same molecule, the TGI (SK-OV-3 ovarian) was 26.7 nM and > 100 µM and 8.88 µg/mL, the GI50 (ACHN renal) was 0.0841 nM and the TGI (MALME-3M melanoma) was 34.2 µM and 0.0012 µg/mL.
`O=C1c2ccccc2-c2cccc3ccc(Cc4ccc5ccccc5c4)c1c23` was tested, and the TGI (OVCAR-8 ovarian) was > 100 µM, the TGI (XF 498 CNS) was > 100 µM and the TGI (HOP-92 NSCLC) was > 100 µM. The TGI (ACHN renal) was > 100 µM, the TGI (MALME-3M melanoma) was > 100 µM and the TGI (TK-10 renal) was > 100 µM. The TGI (U251 CNS) was > 100 µM and the TGI (SF-539 CNS) was > 100 µM.
For `O=S(=O)(N/N=C/c1ccc(/C=N/NS(=O)(=O)c2ccccc2)cc1)c1ccccc1`, the TGI (OVCAR-8 ovarian) was > 100 µM, the TGI (XF 498 CNS) was > 100 µM and the TGI (HOP-92 NSCLC) was 64.8 µM. The TGI (SK-OV-3 ovarian) was > 100 µM, the TGI (ACHN renal) was > 100 µM and the TGI (MALME-3M melanoma) was > 100 µM. For the same molecule, the TGI (TK-10 renal) was > 100 µM, the TGI (U251 CNS) was > 100 µM and the TGI (SF-539 CNS) was 93.3 µM.
`CCOC(=O)NC(=O)c1cn(CC(=O)NCC(=O)NCC(=O)NCCCN2CCN(CCCNC(=O)CNC(=O)CNC(=O)Cn3cc(C(=O)NC(=O)OCC)c(=O)[nH]c3=O)CC2)c(=O)[nH]c1=O` was tested, and the TGI (OVCAR-8 ovarian) was > 100 µM, the TGI (XF 498 CNS) was > 100 µM and the TGI (HOP-92 NSCLC) was > 100 µM. For the same molecule, the TGI (SK-OV-3 ovarian) was > 100 µM, the TGI (ACHN renal) was > 100 µM and the TGI (MALME-3M melanoma) was > 100 µM. The TGI (TK-10 renal) was > 100 µM, the TGI (U251 CNS) was > 100 µM and the TGI (SF-539 CNS) was > 100 µM.
`COc1c2nc(CCl)[nH]c(=O)c2c(OC)c2nc(CCl)[nH]c(=O)c12` was tested, and the TGI (OVCAR-8 ovarian) was > 100 µM, the TGI (XF 498 CNS) was > 100 µM and the TGI (HOP-92 NSCLC) was > 100 µM. For the same molecule, the TGI (SK-OV-3 ovarian) was > 100 µM, the TGI (ACHN renal) was > 100 µM and the TGI (MALME-3M melanoma) was > 100 µM. For the same molecule, the TGI (TK-10 renal) was > 100 µM, the TGI (U251 CNS) was > 100 µM and the TGI (SF-539 CNS) was > 100 µM.
In the case of `CC(C)CS(=O)(=O)/C(=C(\c1ccc(Br)cc1)S(=O)(=O)CC(C)C)c1ccc(Br)cc1`, the TGI (OVCAR-8 ovarian) was > 100 µM, the TGI (XF 498 CNS) was > 100 µM and the TGI (HOP-92 NSCLC) was > 100 µM. The TGI (ACHN renal) was > 100 µM, the TGI (MALME-3M melanoma) was > 100 µM and the TGI (TK-10 renal) was > 100 µM. The TGI (U251 CNS) was > 100 µM and the TGI (SF-539 CNS) was > 100 µM.
For `CC(=O)c1cccc(N2COC(C)(C)c3nc4ccccc4n3C2)c1`, the TGI (OVCAR-8 ovarian) was > 100 µM, the TGI (XF 498 CNS) was > 100 µM and the TGI (HOP-92 NSCLC) was > 100 µM. The TGI (SK-OV-3 ovarian) was > 100 µM, the TGI (ACHN renal) was > 100 µM and the TGI (MALME-3M melanoma) was > 100 µM. The TGI (TK-10 renal) was > 100 µM, the TGI (U251 CNS) was > 100 µM and the TGI (SF-539 CNS) was > 100 µM.
Molecule `CC/C(C)=C1\CCC(CN2CCOCC2)C1=O` (centres undefined) has a TGI (OVCAR-8 ovarian) of 50.6 µM, a TGI (XF 498 CNS) of 33.4 µM and a TGI (HOP-92 NSCLC) of 32.4 µM. For the same molecule, the TGI (ACHN renal) was 19.8 µM, the TGI (MALME-3M melanoma) was 33 µM and the TGI (TK-10 renal) was 28 µM. It also gave a TGI (SF-539 CNS) of 35 µM.
With `COc1ccc(NC(=O)C(=O)C(C(=O)c2ccccc2)C2OC(=O)c3ccccc32)c([N+](=O)[O-])c1` (centres undefined) the TGI (OVCAR-8 ovarian) was > 100 µM, the TGI (XF 498 CNS) was > 100 µM and the TGI (HOP-92 NSCLC) was > 100 µM. The TGI (SK-OV-3 ovarian) was > 100 µM, the TGI (ACHN renal) was > 100 µM and the TGI (MALME-3M melanoma) was > 100 µM. For the same molecule, the TGI (TK-10 renal) was > 100 µM, the TGI (U251 CNS) was > 100 µM and the TGI (SF-539 CNS) was > 100 µM.
For `CCOC(=O)C(N)C[S][Sn]([CH3])([CH3])[Cl]` (centres undefined), the GI50 (OVCAR-8 ovarian) was > 100 µM, the TGI (OVCAR-8 ovarian) was > 100 µM and the GI50 (XF 498 CNS) was > 100 µM. For the same molecule, the TGI (XF 498 CNS) was > 100 µM, the GI50 (HOP-92 NSCLC) was > 100 µM and the TGI (HOP-92 NSCLC) was > 100 µM. The GI50 (SK-OV-3 ovarian) was > 100 µM, the TGI (SK-OV-3 ovarian) was > 100 µM and the GI50 (ACHN renal) was > 100000 nM. For the same molecule, the TGI (ACHN renal) was > 100 µM, the GI50 (MALME-3M melanoma) was > 100 µM and the TGI (MALME-3M melanoma) was > 100 µM. For the same molecule, the GI50 (TK-10 renal) was > 100 µM, the TGI (TK-10 renal) was > 100 µM and the GI50 (U251 CNS) was > 100 µM. The TGI (U251 CNS) was > 100 µM, the GI50 (SF-539 CNS) was > 100 µM and the TGI (SF-539 CNS) was > 100 µM.
